Broadly, the solubility is how much of the substance goes into solution per volume. As usually defined, the half-life is the time needed for the level to fall by half in the phase considered. Read a high half-life as slow decline.

≈ marks a conversion by molar mass, not a printed value. Entries after “also recorded” stand apart in the source; their conditions may differ. Read-outs that look alike come from different tables or passages of the source.

The test system of one data set is TrkB. Description: Shc adaptor protein recruitment to TrkB in HCEMs (IP/western blot). To be noted: 1 h, compounds 1000 nM, BDNF 0.7 nM. In kind it is cell-based, human. The text has this: Fig. 2. […] Scale bar: 10 μm. […] Scale bar: 10 μm.
For orientation: Immunoblotting shows a protein as a band on a membrane.

The test system of data set [1] is E16 mouse hippocampal neurons. Description: Hippocampal neuron survival (ViaLight assay and Tuj1-positive cell counts). In kind it is cell-based. To be noted: for neurotrophic activity in the presence of function-blocking anti-TrkB^ECD antibody: compounds 1000 nM, BDNF 20 ng/ml, vs control antibody. The source says:
To further confirm that PTX-BD4-3 promotes biologically relevant activity through TrkB, we examined the effect of PTX-BD4-3 on survival of cultured hippocampal neurons, using two different methods (Fig. 3A-C). […] It would be expected that although there is a correlation between survival status and mitochondrial metabolic status, one could have some degree of variability in metabolic function for a given level of cell survival. […] Because the plateau effect of PTX-BD4-3 on survival was observed between 500 nM and 1000 nM, we chose 1000 nM as a standard concentration for subsequent mechanistic studies.
Fig. 3. […] (A) Fluorescence photomicrographs (original magnification, ×40) of Tuj1-immunostained E16 mouse hippocampal neuronal cultures treated with culture medium (CM) alone, BDNF, LM22A-4 or PTX-BD4-3 for 48 h. Scale bar: 10 μm. (B) Neuron survival dose-response curves for LM22A-4 and PTX-BD4-3 were generated using the ViaLight assay; data were normalized to survival achieved with 20 ng/ml (∼0.7 nM) BDNF and compared with wells receiving culture medium medium (CM) alone. n=10-32 wells per group derived from four to five independent experiments. (C) Survival analysis of hippocampal neurons treated with either 20 ng/ml BDNF, 500 nM or 1000 nM LM22A-4 or 500 nM or 1000 nM PTX-BD4-3 for 48 h. Tuj1-positive cells counts were normalized to the survival achieved with BDNF and compared with wells treated with […]. n=32-40 wells per group derived from six independent experiments. Statistical significance in B and C was determined by one-way ANOVA with Dunnett's post hoc multiple comparison tests. *P≤0.05, ^§P≤0.001 compared to control (CM). (D) Survival of hippocampal neurons treated with CM, 20ng/ml BDNF (B), 1000 nM LM22A-4 or 1000 nM PTX-BD4-3 with or without anti-TrkB antibody (Bab) or non-immune serum (non). n=37-42 wells per group derived from five independent experiments. *P≤0.05, **P≤0.01, ***P≤0.001 (non vs Bab), Mann-Whitney test; *P≤0.05, ^ψP≤0.01, ^§P≤0.001 (compared to CM), one-way ANOVA with Dunnett's post hoc multiple comparison test.
Hippocampal neuron cultures were prepared from E16 CF1 mouse fetuses as described previously ([Yang et al., 2006]). Under the low-density conditions used here, neuronal survival is dependent, in part, on addition of exogenous neurotrophins ([Yang et al., 2008]; [Walter et al., 2011]). LM22A-4 and PTX-BD4-3 were dissolved in water at a stock concentration of 10 mM prior to dilution (1:10,000) in culture medium. Cell survival following a 48-h exposure to BDNF, LM22A-4 or PTX-BD4-3 was quantified by either counting β-tubulin III-positive cell bodies ([Massa et al., 2006]; [Walter et al., 2011]) or by the ViaLight Assay described above.

A short description of data set [2]: Brain:plasma partitioning (LC-MS/MS). In kind it is in vivo, mouse. To be noted: mice; for concentration at 1 h / concentration at 3 h / Kp at 1 h / Kp at 3 h / plasma levels: 50 mg/kg i.p.; for Kp at 1 h / Kp at 3 h: brain/plasma, read-out: brain-to-plasma ratio; for concentration at 1 h / Kp at 1 h / plasma levels: 1 h; for plasma levels: in nM (unit assumed). The protocol:
Brain and plasma concentrations of LM22A-4, PTX-BD4-3 and atenolol were determined by LC-MS/MS by Absorption Systems (Exton, PA, USA). Male C57BL/6 were dosed intraperitoneally one time with LM22A-4 or PTX-BD4-3 suspended in water at 50 mg/kg (10 ml/kg). Mice were sacrificed at 1 h or 3 h post dose (n=3-4 mice/time point), and brain and plasma samples were collected.
Figure S1. Brain and plasma levels, and brain to plasma ratios for […]
PTX-BD4-3 following IP administration in Wt mice. Brain and plasma levels were determined by LC-MS/MS and used to calculate the brain:plasma ratios at 1 and 3 hours after IP administration of 50 mg/kg LM22A-4 (black), or PTX- […]
in mice (n=11-12 mice/time point; data shown are mean + s.e.m.)
*p<0.05 compared to LM22A-4 at same time point; one-tailed Student’s t-test. […]

A short description of data set [3]: Aqueous solubility (Cerep). To be noted: assay maximum 200 µM. In kind it is physicochemical. As to the method: (§1) To evaluate the relative binding specificity of LM22A-4 ([Massa et al., 2010]) and PTX-BD4-3, binding to a broad range of 55 pharmacologically relevant receptors, including numerous neurotransmitter and G-protein coupled receptors was assessed using standard radioligand competition binding assays (ExpressSProfile) performed by Cerep, Inc. (Seattle, WA, USA). In addition, ADME-Tox analysis was performed by Cerep, Inc. All experimental conditions are described on the Cerep website (www.cerep.fr).
(§2) Aqueous Human CYP inhibition (10µM) AMES hERG solubility hepatocyte DNA testing
(§3) (µM) metabolic mutagenesis
(§4) PTX‐BD4‐3 200 >60 negative negative negative
(§5) Table S2. Solubility, metabolism and toxicity screens for LM22A-4 and PTX-BD4-3. Standardized assays of solubility, metabolic stability and in vitro toxicity were performed to further evaluate the potential of PTX-BD4-3 as a lead candidate molecule for the treatment of Rett syndrome, and to compare its profile to that of the parent compound LM22A-4. Aqueous solubility of both compounds, which is used as a surrogate measure of absorption, was at or near the assay maximum of 200 µM. The metabolic stability of both compounds at 10 µM was evaluated at 5 different time points in […] and found to be >60 min, indicating favorable stability. […]

The subject of data set [4] is 4 different strains of Salmonella typhimurium. Put plainly: AMES DNA mutagenesis (Cerep). In kind it is cell-based. To be noted: 5, 10, 50 and 100 µM; 4 strains. As to the method:
as §1, §2, §3, §4, §5

The target in another data set is T1, hERG channels (Homo sapiens, UniProt Q12809).
T1 construct: Cerep, Inc. (contract screen)
Description: hERG testing (Cerep). In kind it is cell-based. To be noted: 0.1, 1 and 10 µM; >50% inhibition of the tail current = significant. As to the method: as §1, §2, §3, §4, §5

Where [5] appears, read: male, C57BL/6, mouse, brain, ip, read-out: brain levels.
[6] abbreviates: male, C57BL/6, mouse, plasma, ip, read-out: plasma level.

T1 sequence (Q12809 whole entry): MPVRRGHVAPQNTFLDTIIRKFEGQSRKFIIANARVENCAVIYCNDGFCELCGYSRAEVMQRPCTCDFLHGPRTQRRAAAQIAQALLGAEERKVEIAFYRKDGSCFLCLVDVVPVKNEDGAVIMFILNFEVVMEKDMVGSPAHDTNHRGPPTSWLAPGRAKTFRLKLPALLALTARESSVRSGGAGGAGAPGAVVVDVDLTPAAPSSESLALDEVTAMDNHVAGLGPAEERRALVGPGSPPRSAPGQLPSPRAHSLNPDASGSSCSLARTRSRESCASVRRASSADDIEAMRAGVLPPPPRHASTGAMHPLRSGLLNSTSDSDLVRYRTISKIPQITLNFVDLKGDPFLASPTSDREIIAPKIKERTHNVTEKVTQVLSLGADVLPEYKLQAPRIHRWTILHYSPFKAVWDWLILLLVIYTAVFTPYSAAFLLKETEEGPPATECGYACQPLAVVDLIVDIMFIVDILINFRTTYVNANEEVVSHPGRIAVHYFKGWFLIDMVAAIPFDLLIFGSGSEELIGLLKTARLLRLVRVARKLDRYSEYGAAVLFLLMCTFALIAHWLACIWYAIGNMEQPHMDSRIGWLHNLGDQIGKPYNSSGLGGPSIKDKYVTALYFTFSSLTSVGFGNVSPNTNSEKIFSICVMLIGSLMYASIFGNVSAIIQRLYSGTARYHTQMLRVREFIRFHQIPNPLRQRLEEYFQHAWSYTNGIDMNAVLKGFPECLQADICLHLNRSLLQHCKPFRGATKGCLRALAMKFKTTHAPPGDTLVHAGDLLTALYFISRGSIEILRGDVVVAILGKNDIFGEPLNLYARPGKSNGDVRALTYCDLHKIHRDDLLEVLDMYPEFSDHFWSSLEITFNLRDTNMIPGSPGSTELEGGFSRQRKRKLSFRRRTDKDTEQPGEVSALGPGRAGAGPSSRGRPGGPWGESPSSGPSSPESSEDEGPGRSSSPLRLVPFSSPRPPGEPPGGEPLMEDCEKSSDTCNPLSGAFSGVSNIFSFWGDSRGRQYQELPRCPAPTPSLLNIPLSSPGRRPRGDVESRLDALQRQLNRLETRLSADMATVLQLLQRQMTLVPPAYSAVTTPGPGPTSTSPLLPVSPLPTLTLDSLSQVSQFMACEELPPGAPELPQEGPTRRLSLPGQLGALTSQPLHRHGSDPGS

Turning to `O=C(NCCO)c1cc(C(=O)NCCO)cc(C(=O)NCCO)c1` [LM22A-4, N,N′,N′′-tris(2-hydroxyethyl)-1,3,5-benzenetricarboxamide, reference compound], the “Shc recruitment to TrkB (ratio of Shc to TrkB)” value in the data set with TrkB is “promoted Shc recruitment to TrkB”. In data set [1], the “neurotrophic activity in the presence of function-blocking anti-TrkB^ECD antibody” value is recorded as “reduction”. Further, in data set [2] (setting [5]), the concentration at 1 h is 0.2 µM and the concentration at 3 h stood at 0.0532 µM. In data set [2] (male, C57BL/6, mouse, ip), the Kp at 1 h amounted to 0.0268 and the Kp at 3 h came out at 0.133. For the same molecule, the concentration at 3 h in data set [2] (setting [6]) is 2350 µM. In data set [2], this molecule registered a plasma levels of 9193.46. The molecule also registered a solubility in data set [3] of 180 µM (≈ 61.2 µg/mL). The “AMES DNA mutagenesis” value in data set [4] was “negative”. The “hERG testing (cardiac toxicity)” value at hERG channels was “negative”.

For `COCCN(C)C(=O)c1cc(C(=O)N(C)CCOC)cc(C(=O)N(C)CCOC)c1` [PTX-BD4-3, benzene-1,3,5-tricarboxylic acid tris-[(2-methoxy-ethyl)-methyl-amide]], in the data set with TrkB, the “Shc recruitment to TrkB (ratio of Shc to TrkB)” value is listed as “promoted Shc recruitment to TrkB”. For the same molecule, in data set [1] (48 h, ViaLight and Tuj1 counts, normalized to 20 ng/ml BDNF), the “maximum levels of neurotrophic activity” value was 80-100 % of that of BDNF. Besides, the EC50 in data set [1] (Mus musculus, Hippocampal neuron, 48 h, ViaLight and Tuj1 counts, read-out: half-maximal effective concentration (EC50), neurotrophic activity) was in the range of 300 to 500 nM. Also, in data set [1], the “neurotrophic activity in the presence of function-blocking anti-TrkB^ECD antibody” value is given as “reduction”. The molecule further yielded a half-life in data set [2] (male, C57BL/6, mouse, brain and plasma, ip, 50 mg/kg, systemic (i.p.) administration) of under 3 h. Also, in data set [2] (setting [5]), the concentration at 1 h worked out at 0.227 µM and the concentration at 3 h is 0.0361 µM. Besides, in data set [2] (male, C57BL/6, mouse, ip), the Kp at 1 h is 0.0329 and the Kp at 3 h was 0.271. Moreover, the concentration at 3 h in data set [2] (setting [6]) was found to be 361 µM. This molecule registered a plasma levels in data set [2] of 10011.16. This molecule displayed a solubility in data set [3] of 200 µM (≈ 84.7 µg/mL). In addition, the “AMES DNA mutagenesis” value in data set [4] was “negative; also recorded: no activity”. Besides, at hERG channels, the “hERG testing (cardiac toxicity)” value is “negative; also recorded: no activity”.

(Values after PMC7710018, “Restoration of motor learning in a mouse model of Rett syndrome following long-term treatment with a novel small-molecule activator of TrkB” (Disease Models & Mechanisms, 2020).)
